Molecular target: T1, eIF2Bα (Homo sapiens, UniProt Q14232)
T1 construct: made in house; host or cells: E. coli BL21(DE3)
T1 sequence (Q14232 1-305): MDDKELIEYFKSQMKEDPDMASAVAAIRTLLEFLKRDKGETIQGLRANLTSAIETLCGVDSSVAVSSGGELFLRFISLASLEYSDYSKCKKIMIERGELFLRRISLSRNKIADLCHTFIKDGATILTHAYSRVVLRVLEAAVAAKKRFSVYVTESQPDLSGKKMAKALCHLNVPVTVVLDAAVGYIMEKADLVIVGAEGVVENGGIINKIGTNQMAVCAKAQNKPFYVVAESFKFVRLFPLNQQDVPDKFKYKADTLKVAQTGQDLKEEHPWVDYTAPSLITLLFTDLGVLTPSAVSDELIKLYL
Assay: MIDAS (mass spectrometry integrated with equilibrium dialysis) metabolite binding screen
Conditions: MIDAS metabolite binding screen with eIF2Bα; sheet "eIF2Ba"
Procedure, shortened: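 Hits called at Storey q < 0.1 on z-scores of PCA-corrected log2 fold change between protein and metabolite chambers, quantified by FIA-MS in triplicate.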

| Compound | log2(corrected fold change) |
| --- | --- |
| NCCS(=O)(=O)O [Taurine] | -0.01154 |
| Cc1ncc(C[n+]2csc(CCO)c2C)c(N)n1 [Thiamine] | 0.0196 |
| Cc1cn([C@H]2C[C@H](O)[C@@H](COP(=O)(O)O)O2)c(=O)[nH]c1=O [Thymidine monophosphate] | -0.007923 |
| O=C(O)[C@@H]1C[C@@H](O)CN1 [Trans-4-Hydroxy-L-proline] | 0.008003 |
| OC[C@H]1O[C@@H](n2cnc3c(O)nc(O)nc32)[C@H](O)[C@@H]1O [Xanthosine] | 0.0001312 |
| O=C(O)c1cc(O)c2cccc(O)c2n1 [Xanthurenic acid] | -0.07533 |
| CCC(C)C(=O)NCC(=O)O (centres unmarked) [a-Methylbutyrylglycine] | -0.07333 |
| O=C(O)/C=C(/CC(=O)O)C(=O)O [cis-Aconitic acid] | 0.003317 |

More lines, now with the values ahead:

| log2(corrected fold change) | Compound |
| --- | --- |
| -0.008195 | Cc1ncc(C[n+]2csc(CCO[P@](=O)(O)OP(=O)(O)O)c2C)c(N)n1 [Thiamine pyrophosphate] |
| -0.0409 | CC(=O)N[C@H]1[C@@H](OP(=O)(O)OP(=O)(O)OC[C@H]2O[C@@H](n3ccc(=O)[nH]c3=O)[C@H](O)[C@@H]2O)O[C@H](CO)[C@@H](O)[C@@H]1O [UDP-GlcNAc] |
| -0.0457 | O=c1ccn([C@@H]2O[C@H](COP(=O)(O)OP(=O)(O)OP(=O)(O)O)[C@@H](O)[C@H]2O)c(=O)[nH]1 [Uridine 5-triphosphate] |
| 0.009821 | O=c1ccn([C@@H]2O[C@H](CO)[C@@H](O)[C@H]2O)c(=O)[nH]1 [Uridine] |

Same assay, conditions: MIDAS screen, sheet eIF2Ba; metabolites screened in pools 1-4; p-value and q-value given

| Compound | log2(corrected fold change) |
| --- | --- |
| Cc1c[nH]c(=O)[nH]c1=O [Thymine] | -0.1153 |
| O=C(O)C/C=C/CC(=O)O [Trans-beta-Hydromuconic acid] | 0.04348 |
| O=c1cc[nH]c(=O)[nH]1 [Uracil] | -0.07123 |
| NC(N)=O [Urea] | -0.06736 |
| O=c1[nH]c(=O)c2[nH]c(=O)[nH]c2[nH]1 [Uric acid] | -0.09817 |
| O=c1ccn([C@@H]2O[C@H](COP(=O)(O)OP(=O)(O)O)[C@@H](O)[C@H]2O)c(=O)[nH]1 [Uridine 5-diphosphate] | -0.03147 |
| O=c1[nH]c(=O)c2nc[nH]c2[nH]1 [Xanthine] | -0.1163 |
| O=c1[nH]c(=O)c2ncn([C@@H]3O[C@H](COP(=O)(O)O)[C@@H](O)[C@H]3O)c2[nH]1 [Xanthosine 5-monophosphate] | -0.169 |
| O=c1ccn([C@H]2C[C@H](O)[C@@H](COP(=O)(O)OP(=O)(O)OP(=O)(O)O)O2)c(=O)[nH]1 [dUTP] | -0.4569 |
| Cytidine monophosphate | 1.354 |
| D-Glucose 6-phosphate | -0.1344 |

Results, then the compound that gave them:

| log2(corrected fold change) | Compound |
| --- | --- |
| -0.3372 | OC[C@H]1O[C@@](CO)(O[C@H]2O[C@H](CO)[C@@H](O)[C@H](O)[C@H]2O)[C@@H](O)[C@@H]1O [Sucrose] |
| 0.1425 | Cc1ncc(C[n+]2csc(CCOP(=O)(O)O)c2C)c(N)n1 [Thiamine monophosphate] |
| 0.01939 | Cc1cn([C@H]2C[C@H](O)[C@@H](COP(=O)(O)OP(=O)(O)OP(=O)(O)O)O2)c(=O)[nH]c1=O [Thymidine 5-triphosphate] |
| 0.1162 | Cc1cn([C@H]2C[C@H](O)[C@@H](CO)O2)c(=O)[nH]c1=O [Thymidine] |
| 0.3274 | NCCc1ccc(O)cc1 [Tyramine] |
| -0.09562 | O=C(O)[C@H]1O[C@H](OP(=O)(O)OP(=O)(O)OC[C@H]2O[C@@H](n3ccc(=O)[nH]c3=O)[C@H](O)[C@@H]2O)[C@H](O)[C@@H](O)[C@@H]1O [UDP-Glucuronate] |
| -0.08707 | OC[C@@H](O)[C@H](O)[C@@H](O)CO [Xylitol] |
| 0.4135 | Benzoate |

Same assay, conditions: eIF2Bα2; 50 μM per metabolite pool; 40 h dialysis at 4 °C

| MIDAS result (enrichment in the protein chamber / hit status) | Compound |
| --- | --- |
| significantly enriched | N[C@@H](Cc1ccc(O)c(I)c1)C(=O)O [iodotyrosine] |

From article PMC8187479, “Sugar phosphate activation of the stress sensor eIF2B” (Nature Communications, 2021)
